Experimental data: patent publication US20140017790A1, “CONTROL AGENT FOR CONTROLLING UNDIFFERENTIATED STATE AND USE THEREOF” (RIKEN, priority 2011, published 2014)

What was measured:
Assay type in all cases: cell-based
mouse iPS cells = test: siRNA knockdown and quantitative RT-PCR in mouse iPS cells
Method: A PrimeScript RT-PCR Kit (trade name, TAKARA BIO INC.), an ABI 7500 Fast real time PCR system (trade name, Applied BioSystems), and a SYBR (registered trademark) Premix Ex Taq (trade name, TAKARA BIO INC.) were used in accordance with their protocols. PCR was carried out by conducting 40 cycles of treatment with a treatment at 94° C. for 5 second and at 62.5° C. for 20 seconds as 1 cycle. The expression level of each gene was calculated by normalizing the relative amount of mRNA in the gene to Gapdh mRNA according to the 2^−ΔΔ^CT method (Thomse R, Solvsten C A, Linnet T E, et al., Analysis of qPCR data by converting exponentially related Ct values into linearly related XO values. J Bioinform Comput Biol 2010: 8: 885-900.). […]
The Stealth siRNA was added so that the final concentration thereof per well was […]. Then, 24 hours after the transfection, total RNAs were extracted, and the expression levels of the undifferentiated marker genes and the Ccl2 gene in the mouse iPS cells were determined by the quantitative RT-PCR.
Also, as a negative control, the mouse iPS cells were subjected to transfection in the same manner as in the above, except that Stealth siRNA (trade name: Stealth RNAi (registered trademark) Negative Control Medium GC, Duplex-catalog number 12935-300, Invitrogen) was used, and the expressions of the undifferentiated marker genes were measured (n=3). […]

human iPS cells [1] = test: phase-contrast morphology of human iPS cells with JAK or PI3K inhibitor; conditions: 6 days
Method: As a JAK inhibitor, a JAK inhibitor I (Merck) was used. As PI3K inhibitor, the same LY294002 as used in Example 4 was used. Human iPS cells were cultured for 6 days under feeder conditions in the same manner as in the above item (1), except that not only the CCL2 but also the JAK inhibitor or the PI3K inhibitor further was added to the medium. In the medium, the concentration of the Jak inhibitor was set to 10 ng/ml, and the concentration of the PI3K inhibitor was set to 5 ng/ml.
Furthermore, as a control, the cells were cultured in the same manner as in the above using the following media, respectively: a medium containing bFGF instead of the CCL2 and containing DMSO (5 ng/ml) instead of the inhibitor; and a medium containing bFGF (5 ng/ml) instead of the CCL2 and containing the inhibitor.
The phase-contrast micrographs show the results obtained under the conditions of, from the above: the inhibitor not added (DMSO added); the JAK inhibitor added; and the PI3K inhibitor added.

human iPS cells [2] = test: differentiation of EBs to myocardial cells, morphology and Tropomyosin immunostaining; conditions: 10th day from the plating; CCL2(+)/LIF(+) or CCL2(-)/bFGF(+) 5 ng/ml
Text: It has been reported that, in general, according to the spontaneous differentiation-inducing method used in the above item (1), differentiation into myocardial cells is more liable to occur. Thus, regarding the cells on the 10th day from the plating in the above item (1), differentiation into myocardial cells was examined.
The morphology of the cells was examined with a microscope. Furthermore, they were immunostained with a Tropomyosin, which is a marker for myocardial cells. Also, culture of the cells, observation of the morphology, and staining were carried out in the same manner as in the above using a medium to which bFGF (5 ng/ml) has been added instead of the CCL2 and LIF.
The photographs in FIG. 19 show the morphologies of the cells on the 10th day from the plating of EB. […] Furthermore, in FIGS. 19A and 19B, the photographs on the left show the cell morphologies, and the photographs on the right show the stained cells. In the black and white photographs of FIG. 19, the stained portions are seen as light gray.

human iPS cells [3] = test: culture of human iPS cells in feeder free media, EB plating, cell adhesion; conditions: LIF not added, CCL2 500 ng/ml alone or bFGF 5 ng/ml alone
Text: As undifferentiated cells, the same human iPS cells as used in Example 7 were used. As CCL2, the mouse recombinant CCL2 used in the item (1) of Example 2 was used. As feeder free media, the following three kinds of media were provided by adding or not adding the CCL2, LIF and bFGF to the medium for human stem cells used in Example 8. Specifically, the media used were as follows: the medium with CCL2 not added (−)/LIF not added (−)/bFGF added (+); the medium with CCL2 added (+)/LIF not added (−)/bFGF not added (−); and the medium with CCL2 added (+)/LIF added (+)/bFGF not added (−). In each medium, the concentration of the LIF was set to 50 units/ml, the concentration of the CCL2 was set to 500 ng/ml, and the concentration of the bFGF was set to 5 ng/ml. Then, the human iPS cells were cultured for 6 days using each medium, and EBs were produced. Thereafter, the thus-produced EBs were seeded in gelatin coated dishes so that each gelatin coated dish contained one EB, and cultured for 5 days in a medium (DMEM) containing 20% FBS.
The photographs in FIG. 20 show the cell morphologies of the EBs on the 5th day from the plating.

human iPS cells [4] = test: EB formation and spontaneous differentiation, cell morphology; conditions: third day from the plating; iPS cells precultured 6 days with the substance
Method: Human iPS cells were cultured for 6 days under feeder conditions in the same manner as in Example 7. Thereafter, embryonic bodies (EBs) were produced. EB formation is known as a spontaneous differentiation-inducing method for inducing the differentiation of iPS cells. Specifically, first, a ROCK inhibitor (Y-27632, WAKO) was added to the culture solution being used for the culture of the human iPS cells so that the concentration thereof was […], and the human iPS cells were cultured for 1 hour under the conditions of 37° C. and 5% CO2. Then, the feeder cells used for the culture were dissociated with a human ES/iPS cell dissociation solution (CTK solution), and the human iPS cells were collected. Then, 1×10^6 of the human iPS cells were seeded in an ultra-low adhesion culture vessel, and cultured for 6 days in an EB preparation medium (DMEM/F12, Knockout SR, L-glutamine, NEAA (non-essential amino acid (GIBCO)), 2-ME, Pen/Strep). The medium was replaced every two days.
Next, spontaneous differentiation was induced. Specifically, the produced EBs were seeded in gelatin coated dishes so that each gelatin coated dish contained one EB. Each EB was cultured for 14 days in a medium (DMEM) containing 20% FBS, and then observed with a microscope. The medium was replaced every two days. The photographs in FIG. 18 show the cell morphology on the third day from the plating.

human iPS cells [5] = test: quantitative RT-PCR of undifferentiated marker genes in human iPS cells under feeder conditions; conditions: CCL2 500 ng/ml, 6 days, relative to bFGF 5 ng/ml
Method: A PrimeScript RT-PCR Kit (trade name, TAKARA BIO INC.), an ABI 7500 Fast real time PCR system (trade name, Applied BioSystems), and a SYBR (registered trademark) Premix Ex Taq (trade name, TAKARA BIO INC.) were used in accordance with their protocols. PCR was carried out by conducting 40 cycles of treatment with a treatment at 94° C. for 5 second and at 62.5° C. for 20 seconds as 1 cycle. The expression level of each gene was calculated by normalizing the relative amount of mRNA in the gene to Gapdh mRNA according to the 2^−ΔΔ^CT method (Thomse R, Solvsten C A, Linnet T E, et al., Analysis of qPCR data by converting exponentially related Ct values into linearly related XO values. J Bioinform Comput Biol 2010: 8: 885-900.).
The human iPS cells were used as undifferentiated cells, and human recombinant CCL2 (137-13011, WAKO, SEQ ID NO: 1) was used as the CCL2. The medium used was a medium for human stem cells (trade name “Primate ES medium”, ReproCELL Incorporated). To this medium, LIF was not added, and the CCL2 was added. The concentration of the CCL2 in the medium was set to 500 ng/ml. Under the above-described feeder conditions, the human iPS cells were cultured on the feeder cells SNL76/7 that produce LIF in the above-described medium. Then, 6 days after the start of the culture, the feeder cells were removed, and total RNAs were collected from the cultured human iPS cells. The undifferentiated marker genes were then subjected to the quantitative RT-PCR.
Also, as a negative control, the human iPS cells were cultured under the feeder conditions and the undifferentiated marker genes were subjected to quantitative RT-PCR in the same manner as in the above, except that bFGF (derived from human, WAKO) was added instead of the CCL2 so that the concentration thereof was 5 ng/ml. Thereafter, assuming that the expression level in the comparative example was 1, the relative value with respect to this value was calculated as the fold change in expression level.

siRNA against the Klf4 gene: Stealth siRNA (Invitrogen), sequence SEQ ID NO: 8 CAAGUUUGUGCUGAAGGCGUCUCUG (commercial Stealth siRNA, chemistry not given here)
expression of the Tbx3 gene after knockdown of the Klf4 gene (mouse iPS cells; 24 hours, relative to negative control): decreased markedly

CC(C)(C)c1nc2c3cc[nH]c(=O)c3c3cc(F)ccc3c2[nH]1 [Jak inhibitor, reference compound]
undifferentiation potency, cell morphology (human iPS cells [1]; Jak inhibitor 10 ng/ml, both bFGF(+)/CCL2(-) and bFGF(-)/CCL2(+)): all the cells had been differentiated and many dead cells were observed

bFGF: bFGF (derived from human, WAKO), added instead of the CCL2 as negative control
undifferentiation potency, cell morphology (human iPS cells [1]; inhibitor not added (DMSO added), bFGF(+)/CCL2(-) or bFGF(-)/CCL2(+)): most of the cells maintained the undifferentiation potency, but some of the cells were differentiated
cell morphology of EBs, differentiation into myocardial cells (human iPS cells [2]): most of them were epithelial cell-like cells
staining with Tropomyosin (marker for myocardial cells) (human iPS cells [2]): not stained
cell adhesion (human iPS cells [3]): not observed
morphology of EB after spontaneous differentiation-inducing culture (human iPS cells [4]): epithelial cell-like morphology

human recombinant CCL2: human recombinant CCL2 (137-13011, WAKO, SEQ ID NO: 1)
expression of the KLF4 gene, fold change (human iPS cells [5]): about two-fold
expression of the Nanog gene, fold change (human iPS cells [5]): about two-fold
expression of the REX1 gene, fold change (human iPS cells [5]): about two-fold
expression of the STELLA gene, fold change (human iPS cells [5]): about two-fold

siRNA against the Ccl2 gene: Stealth siRNA (Invitrogen), sequence SEQ ID NO: 7 CAUUCACCAGCAAGAUGAUCCCAAU (commercial Stealth siRNA, chemistry not given here)
expressions of the undifferentiated marker genes (Klf4, Tbx3) after knockdown of the Ccl2 gene (mouse iPS cells; 24 hours after transfection, relative to negative control siRNA): decreased markedly
